From US20100130725A1, “METHODS FOR CHARACTERIZING MOLECULES” (priority 2008, published 2010)

Legend:
quiescent A431 cells = assay: Epic RWG biosensor DMR assay, agonist mode (primary profile), quiescent A431 cells; format: cell-based, human
Method: All cell lines were obtained from American Type Cell Culture (Manassas, Va.). The cell culture medium was as follows: Dulbecco's modified Eagle's medium (DMEM) supplemented with 10% fetal bovine serum (FBS), 4.5 g/liter glucose, 2 mM glutamine, and antibiotics for human epidermoid carcinoma A431 and human lung carcinoma A549.
Cells were typically grown using ˜1 to 2×10^4 cells per well at passage 3 to 15 suspended in 50 μl of the corresponding culture medium in the biosensor microplate, and were cultured at 37° C. under air/5% CO2 for ˜1 day. Except for A431, which was subject to ˜20 hr starvation through continuous culture in the serum-free DMEM, the other cell types were directly assayed without starvation. The confluency for all cells at the time of assays was ˜95% to 100%.
Epic® wavelength interrogation system (Corning Inc., Corning, N.Y.) was used for whole cell sensing. This system consists of a temperature-control unit, an optical detection unit, and an on-board liquid handling unit with robotics. The detection unit is centered on integrated fiber optics, and enables kinetic measures of cellular responses with a time interval of ˜15 sec.
The RWG biosensor is capable of detecting minute changes in local index of refraction near the sensor surface. Since the local index of refraction within a cell is a function of density and its distribution of biomass (e.g., proteins, molecular complexes), the biosensor exploits its evanescent wave to non-invasively detect ligand-induced dynamic mass redistribution in native cells. […]
For biosensor cellular assays, molecule solutions were made by diluting the stored concentrated solutions with the HBSS (1× Hanks balanced salt solution, plus 20 mM Hepes, pH 7.1), and transferred into a 384 well polypropylene molecule storage plate to prepare a molecule source plate. […] Both the cell assay plate and the molecule and marker source plate(s) were then incubated in the hotel of the reader system. After ˜1 hr of incubation the baseline wavelengths of all biosensors in the cell assay microplate were recorded and normalized to zero. […]

A431 cells = assay: EGF-induced DMR signal in partially quiescent A431 cells (20 hr in 0.1% fetal bovine serum); format: cell-based, human; details: partially quiescent A431, 20 hour starvation in 0.1% fetal bovine serum
From the text: EGFR belongs to the family of receptor tyrosine kinases. EGF binds to and stimulates the intrinsic protein-tyrosine kinase activity of EGFR, initiating a signal transduction cascade, principally involving the MAPK, […] and JNK pathways. Upon EGF stimulation, there are many events leading to mass redistribution in A431 cells—a cell line endogenously over-expressing EGFRs. It is known that EGFR signaling depends on cellular status. As a result, the EGF-induced DMR signals are also dependent on the cellular status. In quiescent cells obtained through 20 hr culturing in 0.1% fetal bovine serum, EGF stimulation leads to a DMR signal with three distinct and sequential phases: (i) a positive phase with increased signal (P-DMR), (ii) a transition phase, and (iii) a decay phase (N-DMR). […]
An Epic® cellular assay was conducted on partially quiescent A431 cells obtained through 1 day culture with serum containing medium followed by 20 hour starvation culturing in a medium containing 0.1% fetal bovine serum. […] Chemical biology and cell biology studies have shown that this EGF-induced DMR signal is primarily linked to the Ras/MAPK pathway, which proceeds through MEK and leads to cell detachment (Fang, Y., et al., (2005) “Characteristics of dynamic mass redistribution of EGF receptor signaling in living cells measured with label free optical biosensors”. Anal. Chem., 77, 5720-5725).

For epidermal growth factor [EGF], the “EC80 for triggering the DMR signal” value (quiescent A431 cells; fully quiescent A431 cells) was roughly 32 nM, the “DMR signal triggered by EGF” value (quiescent A431 cells; fully quiescent A431 cells, EGF 32 nM, average of 32 replicates) was “distinct and robust DMR signal” and the “DMR response as a function of EGF dose” value (quiescent A431 cells; quiescent A431 cells, data not shown) was “dose-dependent response”. For the same substance, the “DMR signal triggered by EGF” value (A431 cells) was “DMR signal with two distinct and sequential phases”.
